Laboratory results reported in patent publication US8936916B2, “Polypeptides for microbial detection” (3M Innovative Properties Company, priority 2008, dated 2015).
Ends that are not written are not given here. * marks the point of attachment. Myristoyl = CCCCCCCCCCCCCC(=O)*

Test: Permeabilization of DPPC liposomes containing glucose oxidase by phosphorylated dermatoxin (absorbance at 538 nm)
Format: biochemical
Procedure: DPPC liposomes containing 5 mg/mL glucose oxidase were prepared as described in Example 2. Glucose oxidase activity was measured in a coupled enzyme reaction with horseradish peroxidase as described in Example 2. The various solutions were quickly added to each of the wells of a microplate using a multichannel pipette and the reactions were started (at T=0 hours) with the addition to the wells of a solution containing glucose and 4-AAP.
The ability of the phosphorylated dermatoxin to open liposomes in the presence of phosphatase was tested by preparing a developing solution as described in Example 2. One hundred-fifty microliters of the developing solution was placed in each well of a 96-well microplate. To each column in the plate was added 20 μL of TES buffer containing one of the following concentrations of unpurified dermatoxin: 3.3 mg/mL, 3.3×10^−1 mg/mL, 3.3×10^−2 mg/mL, 3.3×10^−3 mg/mL, 3.3×10^−4 mg/mL, 3.3×10^−5 mg/mL, 3.3×10^−6 mg/mL, or 3.3×10^−7 mg/mL. Negative control wells contained TES buffer with no dermatoxin. Positive control wells buffer contained TES buffer with Triton X-100. Ten-microliter aliquots of the following concentrations of DPPC liposomes (containing 5 mg/mL glucose oxidase) were added to wells in duplicate rows: 0.1 mg lipid/mL, 0.02 mg lipid/mL, 0.004 mg lipid/mL, or plain buffer. To one of the duplicate rows was added 20 μL of 2.5 mg/mL alkaline phosphatase in TES. The other duplicate row received 20 μL of TES buffer. Thus the final dermatoxin concentration in the well varied from […], and the final lipid concentration in the well ranged from 0.005 mg lipid/mL to 2.0×10^−4 mg lipid/mL.
The absorbance was recorded at 538 nm on a SpectraMax M5 plate reader (Molecular Devices, Sunnyvale, Calif.) after two hours incubation at room temperature, and also after overnight incubation (approximately 18 hours). Since the absorbance of several wells was saturated, the overnight samples were diluted 1:10 with 50 mmol TES and the absorbance of the diluted samples was measured.

With “SLGSFLKGVGTTLASVGKVVSDQFGKLLQAGQ (Myristoyl-SLGSFLKGVGTTLASVGKVVSDQFGKLLQAGQ; also: phosphorylated) [phosphorylated dermatoxin, fully phosphorylated dermatoxin, unpurified crude preparation]” the “Absorbance at 538 nm (cytolytic peptide activity)” value (“Absorbance at 538 nm” for short) (2 hrs, lipid conc. 0, dermatoxin mass 3.3 × 10^−5 mg, with phosphatase) was 0.122 absorbance units, the “Absorbance at 538 nm” value (2 hrs, lipid conc. 0, dermatoxin mass 3.3 × 10^−5 mg, without phosphatase) was 0.121 absorbance units and the “Absorbance at 538 nm” value (2 hrs, lipid conc. 0, dermatoxin mass 3.3 × 10^−6 mg, with phosphatase) was 0.120 absorbance units. For the same sequence, the “Absorbance at 538 nm” value (2 hrs, lipid conc. 0, dermatoxin mass 3.3 × 10^−6 mg, without phosphatase) was 0.115 absorbance units, the “Absorbance at 538 nm” value (2 hrs, lipid conc. 0, dermatoxin mass 3.3 × 10^−7 mg, with phosphatase) was 0.118 absorbance units and the “Absorbance at 538 nm” value (2 hrs, lipid conc. 0, dermatoxin mass 3.3 × 10^−7 mg, without phosphatase) was 0.116 absorbance units. The “Absorbance at 538 nm” value (2 hrs, lipid conc. 0, dermatoxin mass 3.3 × 10^−8 mg, with phosphatase) was 0.119 absorbance units, the “Absorbance at 538 nm” value (2 hrs, lipid conc. 0, dermatoxin mass 3.3 × 10^−8 mg, without phosphatase) was 0.114 absorbance units and the “Absorbance at 538 nm” value (2 hrs, lipid conc. 0, dermatoxin mass 3.3 × 10^−9 mg, with phosphatase) was 0.118 absorbance units. For the same sequence, the “Absorbance at 538 nm” value (2 hrs, lipid conc. 0, dermatoxin mass 3.3 × 10^−9 mg, without phosphatase) was 0.113 absorbance units, the “Absorbance at 538 nm” value (2 hrs, lipid conc. 0.004, dermatoxin mass 3.3 × 10^−5 mg, with phosphatase) was 0.204 absorbance units and the “Absorbance at 538 nm” value (2 hrs, lipid conc. 0.004, dermatoxin mass 3.3 × 10^−5 mg, without phosphatase) was 0.200 absorbance units. For the same sequence, the “Absorbance at 538 nm” value (2 hrs, lipid conc. 0.004, dermatoxin mass 3.3 × 10^−6 mg, with phosphatase) was 0.197 absorbance units, the “Absorbance at 538 nm” value (2 hrs, lipid conc. 0.004, dermatoxin mass 3.3 × 10^−6 mg, without phosphatase) was 0.161 absorbance units and the “Absorbance at 538 nm” value (2 hrs, lipid conc. 0.004, dermatoxin mass 3.3 × 10^−7 mg, with phosphatase) was 0.130 absorbance units. For the same sequence, the “Absorbance at 538 nm” value (2 hrs, lipid conc. 0.004, dermatoxin mass 3.3 × 10^−7 mg, without phosphatase) was 0.119 absorbance units, the “Absorbance at 538 nm” value (2 hrs, lipid conc. 0.004, dermatoxin mass 3.3 × 10^−8 mg, with phosphatase) was 0.126 absorbance units and the “Absorbance at 538 nm” value (2 hrs, lipid conc. 0.004, dermatoxin mass 3.3 × 10^−8 mg, without phosphatase) was 0.111 absorbance units. For the same sequence, the “Absorbance at 538 nm” value (2 hrs, lipid conc. 0.004, dermatoxin mass 3.3 × 10^−9 mg, with phosphatase) was 0.126 absorbance units, the “Absorbance at 538 nm” value (2 hrs, lipid conc. 0.004, dermatoxin mass 3.3 × 10^−9 mg, without phosphatase) was 0.115 absorbance units and the “Absorbance at 538 nm” value (2 hrs, lipid conc. 0.02, dermatoxin mass 3.3 × 10^−5 mg, with phosphatase) was 0.546 absorbance units. The “Absorbance at 538 nm” value (2 hrs, lipid conc. 0.02, dermatoxin mass 3.3 × 10^−5 mg, without phosphatase) was 0.633 absorbance units, the “Absorbance at 538 nm” value (2 hrs, lipid conc. 0.02, dermatoxin mass 3.3 × 10^−6 mg, with phosphatase) was 0.480 absorbance units and the “Absorbance at 538 nm” value (2 hrs, lipid conc. 0.02, dermatoxin mass 3.3 × 10^−6 mg, without phosphatase) was 0.263 absorbance units. For the same sequence, the “Absorbance at 538 nm” value (2 hrs, lipid conc. 0.02, dermatoxin mass 3.3 × 10^−7 mg, with phosphatase) was 0.140 absorbance units, the “Absorbance at 538 nm” value (2 hrs, lipid conc. 0.02, dermatoxin mass 3.3 × 10^−7 mg, without phosphatase) was 0.141 absorbance units and the “Absorbance at 538 nm” value (2 hrs, lipid conc. 0.02, dermatoxin mass 3.3 × 10^−8 mg, with phosphatase) was 0.132 absorbance units. The “Absorbance at 538 nm” value (2 hrs, lipid conc. 0.02, dermatoxin mass 3.3 × 10^−8 mg, without phosphatase) was 0.111 absorbance units, the “Absorbance at 538 nm” value (2 hrs, lipid conc. 0.02, dermatoxin mass 3.3 × 10^−9 mg, with phosphatase) was 0.124 absorbance units and the “Absorbance at 538 nm” value (2 hrs, lipid conc. 0.02, dermatoxin mass 3.3 × 10^−9 mg, without phosphatase) was 0.114 absorbance units. The “Absorbance at 538 nm” value (2 hrs, lipid conc. 0.1, dermatoxin mass 3.3 × 10^−5 mg, with phosphatase) was 2.034 absorbance units, the “Absorbance at 538 nm” value (2 hrs, lipid conc. 0.1, dermatoxin mass 3.3 × 10^−5 mg, without phosphatase) was 1.521 absorbance units and the “Absorbance at 538 nm” value (2 hrs, lipid conc. 0.1, dermatoxin mass 3.3 × 10^−6 mg, with phosphatase) was 1.473 absorbance units. For the same sequence, the “Absorbance at 538 nm” value (2 hrs, lipid conc. 0.1, dermatoxin mass 3.3 × 10^−6 mg, without phosphatase) was 0.759 absorbance units, the “Absorbance at 538 nm” value (2 hrs, lipid conc. 0.1, dermatoxin mass 3.3 × 10^−7 mg, with phosphatase) was 0.173 absorbance units and the “Absorbance at 538 nm” value (2 hrs, lipid conc. 0.1, dermatoxin mass 3.3 × 10^−7 mg, without phosphatase) was 0.267 absorbance units. The “Absorbance at 538 nm” value (2 hrs, lipid conc. 0.1, dermatoxin mass 3.3 × 10^−8 mg, with phosphatase) was 0.136 absorbance units, the “Absorbance at 538 nm” value (2 hrs, lipid conc. 0.1, dermatoxin mass 3.3 × 10^−8 mg, without phosphatase) was 0.132 absorbance units and the “Absorbance at 538 nm” value (2 hrs, lipid conc. 0.1, dermatoxin mass 3.3 × 10^−9 mg, with phosphatase) was 0.134 absorbance units. The “Absorbance at 538 nm” value (2 hrs, lipid conc. 0.1, dermatoxin mass 3.3 × 10^−9 mg, without phosphatase) was 0.121 absorbance units, the “Absorbance at 538 nm” value (18 hrs (d), 1:10-diluted sample, lipid conc. 0, dermatoxin mass 3.3 × 10^−5 mg, with phosphatase) was 0.053 absorbance units and the “Absorbance at 538 nm” value (18 hrs (d), 1:10-diluted sample, lipid conc. 0, dermatoxin mass 3.3 × 10^−5 mg, without phosphatase) was 0.054 absorbance units. The “Absorbance at 538 nm” value (18 hrs (d), 1:10-diluted sample, lipid conc. 0, dermatoxin mass 3.3 × 10^−6 mg, with phosphatase) was 0.053 absorbance units, the “Absorbance at 538 nm” value (18 hrs (d), 1:10-diluted sample, lipid conc. 0, dermatoxin mass 3.3 × 10^−6 mg, without phosphatase) was 0.052 absorbance units and the “Absorbance at 538 nm” value (18 hrs (d), 1:10-diluted sample, lipid conc. 0, dermatoxin mass 3.3 × 10^−7 mg, with phosphatase) was 0.052 absorbance units. For the same sequence, the “Absorbance at 538 nm” value (18 hrs (d), 1:10-diluted sample, lipid conc. 0, dermatoxin mass 3.3 × 10^−7 mg, without phosphatase) was 0.054 absorbance units, the “Absorbance at 538 nm” value (18 hrs (d), 1:10-diluted sample, lipid conc. 0, dermatoxin mass 3.3 × 10^−8 mg, with phosphatase) was 0.054 absorbance units and the “Absorbance at 538 nm” value (18 hrs (d), 1:10-diluted sample, lipid conc. 0, dermatoxin mass 3.3 × 10^−8 mg, without phosphatase) was 0.053 absorbance units. For the same sequence, the “Absorbance at 538 nm” value (18 hrs (d), 1:10-diluted sample, lipid conc. 0, dermatoxin mass 3.3 × 10^−9 mg, with phosphatase) was 0.053 absorbance units, the “Absorbance at 538 nm” value (18 hrs (d), 1:10-diluted sample, lipid conc. 0, dermatoxin mass 3.3 × 10^−9 mg, without phosphatase) was 0.053 absorbance units and the “Absorbance at 538 nm” value (18 hrs (d), 1:10-diluted sample, lipid conc. 0.004, dermatoxin mass 3.3 × 10^−5 mg, with phosphatase) was 0.092 absorbance units. For the same sequence, the “Absorbance at 538 nm” value (18 hrs (d), 1:10-diluted sample, lipid conc. 0.004, dermatoxin mass 3.3 × 10^−5 mg, without phosphatase) was 0.096 absorbance units, the “Absorbance at 538 nm” value (18 hrs (d), 1:10-diluted sample, lipid conc. 0.004, dermatoxin mass 3.3 × 10^−6 mg, with phosphatase) was 0.090 absorbance units and the “Absorbance at 538 nm” value (18 hrs (d), 1:10-diluted sample, lipid conc. 0.004, dermatoxin mass 3.3 × 10^−6 mg, without phosphatase) was 0.081 absorbance units. For the same sequence, the “Absorbance at 538 nm” value (18 hrs (d), 1:10-diluted sample, lipid conc. 0.004, dermatoxin mass 3.3 × 10^−7 mg, with phosphatase) was 0.066 absorbance units, the “Absorbance at 538 nm” value (18 hrs (d), 1:10-diluted sample, lipid conc. 0.004, dermatoxin mass 3.3 × 10^−7 mg, without phosphatase) was 0.056 absorbance units and the “Absorbance at 538 nm” value (18 hrs (d), 1:10-diluted sample, lipid conc. 0.004, dermatoxin mass 3.3 × 10^−8 mg, with phosphatase) was 0.063 absorbance units. For the same sequence, the “Absorbance at 538 nm” value (18 hrs (d), 1:10-diluted sample, lipid conc. 0.004, dermatoxin mass 3.3 × 10^−8 mg, without phosphatase) was 0.054 absorbance units and the “Absorbance at 538 nm” value (18 hrs (d), 1:10-diluted sample, lipid conc. 0.004, dermatoxin mass 3.3 × 10^−9 mg, with phosphatase) was 0.062 absorbance units.
